Results as given in patent US7687497B2, “C10-substituted camptothecin analogs” (priority 2007, dated 2010).
Like-named read-outs stand apart in the source and are kept apart here.

Tests used:
[1] = tested on: advanced gastrointestinal cancer; details: cited from earlier work
[2] = cited from earlier work
[3] = cited from earlier work; remark: listed apart in the source
[4] = tested on: advanced malignant melanoma; details: fifteen patients, 90-360 mg/m^2 repeated every 2 weeks; cited from earlier work
[5] = clinical studies in Japan alone; cited from earlier work
A2780/DX5 cells = assay: Sulforhodamine B (SRB) cytotoxicity assay in A2780/DX5 cells; format: cell-based; details: for IC50 Ratio: A2780/DX5 versus A2780/WT; for IC50: Homo sapiens, A2780, read-out: A2780/DX5 (nM)
Method: (§1) Each of the testing conditions used in this study in both A2780/WT (wild-type) and A2780/DX5 cells were repeated in five to fifteen experiments that were performed on separate days. Each experiment consisted of one microtiter plate with at least eight individual assays of a given drug treatment condition on the plate. The sulforhodamine B (SRB) assay was used to assess cytotoxicity and absorbance at 570 nm (A570) in order to calculate the percentage of cell control (or percent cell survival) for the various treatment conditions in the plate wells.
Roswell Park Memorial Institute (RPMI 1640) medium, fetal bovine serum (FBS), and L-glutamine were purchased from Gibco BRL. Drugs were dissolved in sterile dimethylsulfoxide (DMSO), from American Type Culture Collection (ATCC) for stock solutions (2.5 to 5.0 mM). Subsequent dilutions were made using cell culture medium (prior to adding the drug to cells). SRB was purchased from Sigma and dissolved in 1.0% acetic acid. Trichloroacetic acid was purchased from VWR International.
(§2) Cells were manipulated in a Class IIA/B3 Biological Safety Cabinet (Forma Scientific) and maintained at 37° C. in a humidified atmosphere containing 5% CO2 in a water-jacketed cell culture incubator (Forma Scientific). Cells were counted using a Coulter-Z1 counter (Beckman-Coulter). Following drug treatment, plates were washed using a Biomek 2000 station (Beckman) and, following exposure to SRB dye, plates were washed using an automated plate washer (Model EL404, Bio-Tek Instruments). Percentage of control was correlated to A570 values and determined using a Model EL800 plate reader (Bio-Tek Instruments).
Population doubling times for the two cell lines used in this study encompassed a total of five cell doublings corresponding to approximately 5 days for A2780/WT and A2780/DX5 cells. A2780/WT and A2780/DX5 cells were cultured in RPMI 1640 medium supplemented with 10% fetal bovine serum and 1 mM of L-glutamine. Both cell lines were maintained as monolayered cultures in T-25 or T-75 flasks and then seeded to microtiter plate wells for experiments described herein. Prior to SRB assays, cell viability was monitored by evaluation of microtiter plate wells. […]
The sulforhodamine B (SRB) cytotoxicity assay (see, Skehan P, et al., New colorimetric cytotoxicity assay for anticancer-drug screening. J. Natl. Cancer Inst. 82:1107-1112 (1990)) was used to determine the cytotoxic effects of BNP1350, SN-38, topotecan, 9-NH2-CPT, and 9-NO2-CPT on cell growth in vitro. […] Plates were agitated (gently) for 5 minutes and the absorbance values of the SRB dye-protein adduct at a 570 nm wavelength (A570) were determined using an automated microtiter plate reader equipped with an A570 filter (Model EL800, BioTek Instruments).

[6] = tested on: A2780/WT (wild-type) cells; assay: Sulforhodamine B (SRB) cytotoxicity assay in A2780/WT cells; format: cell-based; details: Homo sapiens, A2780, read-out: A2780/WT (nM)
Method: as §1
Roswell Park Memorial Institute (RPMI 1640) medium, fetal bovine serum (FBS), and L-glutamine were purchased from Gibco BRL. […]
as §2, with “Following drug treatment, plates were washed using a Biomek 2000 station (Beckman) and, following exposure to SRB dye, plates were washed using an automated plate washer (Model EL404, Bio-Tek Instruments).” left out
Population doubling times for the two cell lines used in this study encompassed a total of five cell doublings corresponding to approximately 5 days for A2780/WT and A2780/DX5 cells. […] Prior to SRB assays, cell viability was monitored by evaluation of microtiter plate wells. […]

human cancer cell lines = assay: In vitro studies on a panel of over 20 human cancer cell lines; format: cell-based
[7] = 5-day course (27 patients total), 4 wks
[8] = 5-day course (27 patients total), 8 wks
[9] = 5-day course (27 patients total), 12 wks
[10] = single-dose method (34 patients total), 3 wks
[11] = single-dose method (34 patients total), 6 wks
[12] = single-dose method (34 patients total), 9 wks
[13] = single-dose method (34 patients total), 12 wks
[14] = 5-day course 15 mg/m^2 × 5, 9 patients treated
[15] = 5-day course 17 mg/m^2 × 5, 5 patients treated
[16] = 5-day course 20 mg/m^2 × 5, 10 patients treated
[17] = single dose 110 mg/m^2, 2 patients treated
[18] = single dose 120 mg/m^2, 7 patients treated
[19] = single dose 180 mg/m^2, 9 patients treated

For `CC[C@@]1(O)C(=O)OCc2c1cc1n(c2=O)Cc2cc3ccccc3nc2-1` [CPT sodium], the “Objective results: Improved” value [1, 7] is listed as 1 patients, the “Objective results: Stable” value [1, 7] is listed as 12 patients and the “Objective results: Worse” value [1, 7] is listed as 14 patients. For the same molecule, the “Objective results: Stable” value [1, 8] was 7 patients, the “Objective results: Worse” value [1, 8] was 20 patients and the “Objective results: Stable” value [1, 9] was 6 patients. For the same molecule, the “Objective results: Worse” value [1, 9] was 21 patients, the “patients with evidence of partial objective improvement” value ([1]; after 2 months (8 or 9 weeks), of 61 patients) was “two” and the “patients who showed improvement” value ([1]; at 3 months, of 61 patients) was “none”. The “Objective results: Improved” value [1, 10] was 4 patients, the “Objective results: Stable” value [1, 10] was 17 patients and the “Objective results: Worse” value [1, 10] was 13 patients. The “Objective results: Improved” value [1, 11] was 2 patients, the “Objective results: Stable” value [1, 11] was 11 patients and the “Objective results: Worse” value [1, 11] was 21 patients. The “Objective results: Improved” value [1, 12] was 2 patients, the “Objective results: Stable” value [1, 12] was 8 patients and the “Objective results: Worse” value [1, 12] was 24 patients. For the same molecule, the “Objective results: Stable” value [1, 13] was 6 patients, the “Objective results: Worse” value [1, 13] was 28 patients and the “No. of patients with cystitis” value ([2]; 5-day course 11 mg/m^2 × 5, 2 patients treated) was 1 patients. The “No. of patients with cystitis” value [2, 14] was 4 patients, the “No. of patients with diarrhea” value [2, 14] was 1 patients and the “No. of patients with cystitis” value [2, 15] was 2 patients. For the same molecule, the “No. of patients with diarrhea” value [2, 15] was 4 patients, the “No. of patients with cystitis” value [2, 16] was 6 patients and the “No. of patients with diarrhea” value [2, 16] was 4 patients. For the same molecule, the “No. of patients with diarrhea” value ([2]; 5-day course 22 mg/m^2 × 5, 1 patient treated) was 1 patients, the “Cystitis, 5-Day Course (% of 27 Patients)” value ([2]; 5-day course) was 48 (P < 0.05) % and the “Number of patients with cystitis” value ([2]; single dose 100 mg/m^2, 6 patients treated) was 2 patients. For the same molecule, the “Number of patients with cystitis” value [2, 17] was 1 patients, the “Number of patients with diarrhea” value [2, 17] was 1 patients and the “Number of patients with cystitis” value [2, 18] was 2 patients. The “Number of patients with diarrhea” value [2, 18] was 4 patients, the “Number of patients with cystitis” value [2, 19] was 3 patients and the “Number of patients with diarrhea” value [2, 19] was 2 patients. For the same molecule, the “Cystitis, Single Dose (% of 34 Patients)” value ([2]; single dose method) was 24%, the “bladder toxicity dose limiting” value ([3]; doses of 20 to 30 mg/m^2) was “three” and the “bladder toxicity, additional patients” value ([3]; doses of 30 and 44 mg/m^2) was “two”. The “less pronounced transient tumor regression” value [4] was “three”.
In the case of `CCc1c2c(nc3ccc(OC(=O)N4CCC(N5CCCCC5)CC4)cc13)-c1cc3c(c(=O)n1C2)COC(=O)[C@]3(O)CC` [CPT-11, 7-ethyl-10-[4-(1-piperidino)-1-piperidino]carbonyloxy camptothecin], the “patient deaths directly attributable to drug toxicity” value [5] is given as “approximately 100 patient deaths”.
For `CCOC(=O)COc1ccc2nc3c(c(CC[Si](C)(C)C)c2c1)Cn1c-3cc2c(c1=O)COC(=O)[C@]2(O)CC` [Compound 9, 7-(2′-Trimethylsilanyl)ethyl-10-(ethoxycarbonylmethoxy) camptothecin], the “IC50 Ratio” value (A2780/DX5 cells) was 1.7, the IC50 (A2780/DX5 cells) was 123 nM and the IC50 [6] was 73.9 nM.
With `CC[C@@]1(O)C(=O)OCc2c1cc1n(c2=O)Cc2c-1nc1ccc(OC(=O)N3CCOCC3)cc1c2CC[Si](C)(C)C` [Compound 12, 7-(2′-Trimethylsilanyl)ethyl-10-(4-morpholinecarbonyloxy) camptothecin] the “IC50 Ratio” value (A2780/DX5 cells) was 2.1, the IC50 (A2780/DX5 cells) was 135 nM and the IC50 [6] was 65.6 nM.
For `CC[C@@]1(O)C(=O)OCc2c1cc1n(c2=O)Cc2c-1nc1ccccc1c2CC[Si](C)(C)C` [Karenitecin (BNP1350), (4S)-4-ethyl-4-hydroxy-11-[2-(trimethylsilyl)ethyl]-1H-pyrano[3′:4′:6,7]indolizino[1,2-b]quinoline-3,14(4H,12H)-dione], the “antitumor potency compared with Topotecan or SN-38” value (human cancer cell lines) was “significantly more potent”.
